These results are taken from US11524966B1 (Valo Early Discovery, Inc., priority 2017, dated 2022).

The target in the experiment is T1, USP28 (His-tagged USP28-FL-mammalian) (Homo sapiens, UniProt Q96RU2).
T1 construct: Expression of USP28 (1-1077)-TEV-6*His (pTT5 vector); made in house; host or cells: Expi293f cells (pTT5 vector)
T1 sequence (Q96RU2 1-1077): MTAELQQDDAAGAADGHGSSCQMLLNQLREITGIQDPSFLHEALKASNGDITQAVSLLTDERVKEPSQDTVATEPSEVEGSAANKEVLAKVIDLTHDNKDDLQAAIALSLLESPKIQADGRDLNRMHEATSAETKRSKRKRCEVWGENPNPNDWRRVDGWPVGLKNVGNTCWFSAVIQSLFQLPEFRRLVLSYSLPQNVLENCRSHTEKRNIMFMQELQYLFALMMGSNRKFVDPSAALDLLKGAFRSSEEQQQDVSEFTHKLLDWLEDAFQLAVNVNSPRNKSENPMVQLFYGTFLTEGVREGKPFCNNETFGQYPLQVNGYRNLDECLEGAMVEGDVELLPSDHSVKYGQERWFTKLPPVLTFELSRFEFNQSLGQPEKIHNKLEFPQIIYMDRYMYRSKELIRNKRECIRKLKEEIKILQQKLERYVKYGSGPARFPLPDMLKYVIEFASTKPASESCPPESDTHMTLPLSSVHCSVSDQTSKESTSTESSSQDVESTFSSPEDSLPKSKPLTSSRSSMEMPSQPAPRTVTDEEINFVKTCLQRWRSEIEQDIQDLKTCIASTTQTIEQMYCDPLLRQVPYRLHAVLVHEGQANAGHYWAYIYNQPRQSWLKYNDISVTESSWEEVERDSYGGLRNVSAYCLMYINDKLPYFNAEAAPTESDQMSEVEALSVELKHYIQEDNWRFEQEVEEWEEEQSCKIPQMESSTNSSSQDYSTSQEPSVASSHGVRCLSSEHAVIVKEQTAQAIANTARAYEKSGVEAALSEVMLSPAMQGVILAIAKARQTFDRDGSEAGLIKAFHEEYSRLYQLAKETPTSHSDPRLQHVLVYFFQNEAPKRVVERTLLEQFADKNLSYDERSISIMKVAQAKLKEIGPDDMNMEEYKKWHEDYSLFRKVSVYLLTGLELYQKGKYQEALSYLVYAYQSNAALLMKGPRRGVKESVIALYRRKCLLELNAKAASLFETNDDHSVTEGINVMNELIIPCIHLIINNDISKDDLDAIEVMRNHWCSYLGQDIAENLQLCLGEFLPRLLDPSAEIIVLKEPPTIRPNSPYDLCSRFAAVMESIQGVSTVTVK
In words: Ubiquitin-Rhodamine 110 Assay for USP28 Activity, Example A-1(a). It counts as biochemical. To be noted: Ub-Rh110 assay, Example A-1(a); read-out: USP28 A-1(a) IC50 range. The method in brief:
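Full-length His-tagged USP28 (1-1077, Expi293F-expressed; […]) was preincubated 30 min with compound (25 μM–1.3 nM, 10-point 3-fold) in 20 mM Tris-HCl pH 8.0, 3 mM BME, 0.03% BGG, 0.01% Triton X-100. Ub-Rh110 (25 nM) was then added for 45 min at room temperature, stopped with citric acid, and read by fluorescence (485/535 nm).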
For the compound `Cc1cc(C)c2c(N)c(C(=O)N[C@H]3COc4cc(N5CC6CC(C5)N6)ccc4C3)sc2n1` [Example 2-18, N-((3R)-7-(3,6-diazabicyclo[3.1.1]heptan-3-yl)chroman-3-yl)-3-amino-4,6-dimethylthieno[2,3-b]pyridine-2-carboxamide], the 50% inhibitory concentration (IC50) is 1 to 50 nM.
Take `Cc1cnc2c(N)c(C(=O)N[C@H]3COc4cc(N5CC6CNCC(C5)O6)ccc4C3)sc2n1` [Example 2-13, N-((3R)-7-(9-oxa-3,7-diazabicyclo[3.3.1]nonan-3-yl)chroman-3-yl)-7-amino-3-methylthieno[2,3-b]pyrazine-6-carboxamide]: the 50% inhibitory concentration (IC50) lay in the range of 1 to 50 nM.
For the compound `COc1nc2sc(C(=O)N[C@H]3COc4cc(N5CCNCC5)ccc4C3)c(N)c2cc1F` [Example 2-16, (R)-3-amino-5-fluoro-6-methoxy-N-(7-(piperazin-1-yl)chroman-3-yl)thieno[2,3-b]pyridine-2-carboxamide], the IC50 was 50 to 200 nM.
For the compound `CO[C@@H]1CN(c2ccc3c(c2)OC[C@H](NC(=O)c2sc4nc(C)ccc4c2N)C3)C[C@H]1N` (single isomer, unassigned) [Example 3-2], the concentration for half-maximal inhibition (IC50) lay within 1 to 50 nM.
For `Cc1ccc2c(N)c(C(=O)N[C@@H]3COc4cc(N5CCNCC5)ccc4C3)sc2n1` (single isomer, unassigned) [Example 1-2], the half-maximal inhibitory concentration (IC50) was 200 to 2000 nM.
`Cc1nc2sc(C(=O)N[C@@H]3COc4cc(N5CC6CCC(C5)N6)cc(F)c4C3)c(N)c2s1` (single isomer, unassigned) [Example 1-40]: the IC50 was 200 to 2000 nM.
For the compound `CCn1ccc2cc(C(=O)N[C@H]3COc4cc(N5CC6CNCC(C5)C6(F)F)ccc4C3)cnc21` [Example 2-30, N-((3R)-7-(9,9-difluoro-3,7-diazabicyclo[3.3.1]nonan-3-yl)chroman-3-yl)-1-ethyl-1H-pyrrolo[2,3-b]pyridine-5-carboxamide], the half-maximal inhibitory concentration (IC50) is 1 to 50 nM.
For the compound `Cc1cnc2c(N)c(C(=O)N[C@H]3COc4cc(N5CC6COCC(C5)N6)ccc4C3)sc2n1` [Example 2-12, N-((3R)-7-(3-oxa-7,9-diazabicyclo[3.3.1]nonan-7-yl)chroman-3-yl)-7-amino-3-methylthieno[2,3-b]pyrazine-6-carboxamide], the IC50 lay within 50 to 200 nM.
The result for `Cc1nc2sc(C(=O)N[C@H]3COc4cc(N5CC6CNCC(C5)C6(F)F)ccc4C3)c(N)c2s1` [Example 2-28, 6-amino-N-((3R)-7-(9,9-difluoro-3,7-diazabicyclo[3.3.1]nonan-3-yl)chroman-3-yl)-2-methylthieno[2,3-d]thiazole-5-carboxamide] reads 1 to 50 nM; that for `Cc1ccc2c(N)c(C(=O)N[C@H]3COc4cc(N5CC6CCC(C5)N6)ccc4C3)sc2n1` (single isomer, unassigned) [Example 1-3], 1 to 50 nM; that for `Cc1cc(C)c2c(N)c(C(=O)N[C@H]3COc4cc(N5CCNCC5)c(C#N)c(F)c4C3)sc2n1` [Example 2-32, (R)-3-amino-N-(6-cyano-5-fluoro-7-(piperazin-1-yl)chroman-3-yl)-4,6-dimethylthieno[2,3-b]pyridine-2-carboxamide], 1 to 50 nM.
Consider `CO[C@H]1CN(c2ccc3c(c2)OC[C@H](NC(=O)c2sc4nc(C)ccc4c2N)C3)C[C@@H]1N` (single isomer, unassigned) [Example 3-1], for which the IC50 fell in the range of 1 to 50 nM.
As for `Cc1ccc2c(N)c(C(=O)N[C@H]3COc4cc(N5CC6CNCC(C5)C6(F)F)c(C#N)cc4C3)sc2n1` [Example 2-33, 3-amino-N-((3R)-6-cyano-7-(9,9-difluoro-3,7-diazabicyclo[3.3.1]nonan-3-yl)chroman-3-yl)-6-methylthieno[2,3-b]pyridine-2-carboxamide], the IC50 is 1 to 50 nM.
As for `Cc1ccc2c(N)c(C(=O)N[C@H]3COc4cc(N5CCN[C@H](C)[C@@H]5C)ccc4C3)sc2n1` (single isomer, unassigned) [Example 1-9], the IC50 fell in the range of 1 to 50 nM.
Regarding `Cc1ccc2c(N)c(C(=O)N[C@H]3COc4cc(N5C6CCC5CNC6)ccc4C3)sc2n1` [Example 2-6, N-((3R)-7-(3,8-diazabicyclo[3.2.1]octan-8-yl)chroman-3-yl)-3-amino-6-methylthieno[2,3-b]pyridine-2-carboxamide], the IC50 was 1 to 50 nM.
With `CCn1ccc2cc(C(=O)N[C@H]3COc4cc(N5CC6CCCC(C5)N6)ccc4C3)nnc21` [Example 2-29, N-((3R)-7-(3,9-diazabicyclo[3.3.1]nonan-3-yl)chroman-3-yl)-7-ethyl-7H-pyrrolo[2,3-c]pyridazine-3-carboxamide], the IC50 lay in the range of 50 to 200 nM.
Regarding `Cc1ccc2c(N)c(C(=O)N[C@@H]3COc4cc(N5CCN[C@H](C)[C@@H]5C)ccc4C3)sc2n1` (single isomer, unassigned) [Example 1-10], the half-inhibitory concentration (IC50) lay within 1 to 50 nM.
Take `Cc1ccc2c(N)c(C(=O)N[C@H]3COc4cc(N5CC6CCCC(C5)N6)ccc4C3)sc2n1` (single isomer, unassigned) [Example 1-5]: the IC50 is 1 to 50 nM.
On to `Cc1nc2sc(C(=O)N[C@H]3COc4cc(N5CC6CC(C5)N6)ccc4C3)c(N)c2cc1F` [Example 2-15, N-((3R)-7-(3,6-diazabicyclo[3.1.1]heptan-3-yl)chroman-3-yl)-3-amino-5-fluoro-6-methylthieno[2,3-b]pyridine-2-carboxamide], for which the IC50 was 1 to 50 nM.
Take `Cc1ccc2c(N)c(C(=O)N[C@@H]3COc4cc(N5CC6CC(C5)N6)cc(F)c4C3)sc2n1` (single isomer, unassigned) [Example 1-41]: the IC50 lay in the range of 1 to 50 nM.
Then `Cc1cc(C)c2c(N)c(C(=O)N[C@H]3COc4cc(N5CCNCC5)ccc4C3)sc2n1` [Example 2-17, (R)-3-amino-4,6-dimethyl-N-(7-(piperazin-1-yl)chroman-3-yl)thieno[2,3-b]pyridine-2-carboxamide], with 1 to 50 nM; and `Cc1ccc2c(N)c(C(=O)N[C@@H]3COc4cc(N5CC6CCCC(C5)N6)ccc4C3)sc2n1` (single isomer, unassigned) [Example 1-6], with 50 to 200 nM; and `Cc1cc(C)c2c(N)c(C(=O)N[C@H]3COc4cc(N5CC6CNCC(C5)C6(F)F)ccc4C3)sc2n1` [Example 2-19, 3-amino-N-((3R)-7-(9,9-difluoro-3,7-diazabicyclo[3.3.1]nonan-3-yl)chroman-3-yl)-4,6-dimethylthieno[2,3-b]pyridine-2-carboxamide], with 1 to 50 nM.
In the case of `Cc1nc2sc(C(=O)N[C@H]3COc4cc(N5CC6CC(C5)N6)ccc4C3)c(N)c2s1` [Example 2-26, N-((3R)-7-(3,6-diazabicyclo[3.1.1]heptan-3-yl)chroman-3-yl)-6-amino-2-methylthieno[2,3-d]thiazole-5-carboxamide], the half-inhibitory concentration (IC50) is 50 to 200 nM.
Consider `Cc1ccc2c(N)c(C(=O)N[C@H]3COc4cc(N5CCC[C@](N)(C(F)(F)F)C5)ccc4C3)sc2n1` (single isomer, unassigned) [Example 3-4], for which the IC50 was 1 to 50 nM.
Regarding `Cc1ccc2c(N)c(C(=O)N[C@@H]3COc4cc(N5CC6CCC(C5)N6)cc(F)c4C3)sc2n1` (single isomer, unassigned) [Example 1-30], the 50% inhibitory concentration (IC50) fell in the range of 200 to 2000 nM.
For `Cc1cnc2c(N)c(C(=O)N[C@H]3CCc4c(ccc(N5CCNCC5)c4C)C3)sc2n1` (single isomer, unassigned) [Example 2-36], the IC50 was 200 to 2000 nM.
In the case of `Cc1ccc2c(N)c(C(=O)N[C@H]3COc4cc(N5CCN[C@H](C)C5)ccc4C3)sc2n1` [Example 2-9, 3-amino-6-methyl-N-((R)-7-((R)-3-methylpiperazin-1-yl)chroman-3-yl)thieno[2,3-b]pyridine-2-carboxamide], the IC50 was 1 to 50 nM.
As to `Cc1ccc2c(N)c(C(=O)N[C@H]3COc4cc(N5CCNCC56COC6)ccc4C3)sc2n1` [Example 2-10], the half-maximal inhibitory concentration (IC50) was in the range of 1 to 50 nM.
The result for `O=C(N[C@H]1COc2cc(N3CC4CCC(C3)N4)ccc2C1)c1cnc2c(c1)C1(CCN2)CC1` [Example 2-24, N-((3R)-7-(3,8-diazabicyclo[3.2.1]octan-3-yl)chroman-3-yl)-2′,3′-dihydro-1′H-spiro[cyclopropane-1,4′-[1,8]naphthyridine]-6′-carboxamide] reads 50 to 200 nM; that for `Cc1ccc2c(N)c(C(=O)N[C@@H]3COc4cc(N5CCNCC5)c(F)cc4C3)sc2n1` [Example 1-36, (S)-3-amino-N-(6-fluoro-7-(piperazin-1-yl)chroman-3-yl)-6-methylthieno[2,3-b]pyridine-2-carboxamide], more than 2000 nM.

As a reminder, the IC50 is the midpoint of a concentration-inhibition curve.
